Assay results as given in patent publication US20160324795A1, “SILIBININ NANOPARTICLE AND A METHOD OF TREATING HEPATITIS C THEREOF” (Kaohsiung Medical University, priority 2014, published 2016).

Experiments:
[1] = Solubility in solutions mimicking blood (pH 7.4) and stomach (pH 1.2); format: physicochemical; details: pH 7.4, after 120 minutes
Text: A solution with pH 7.4 mimics the environment of the blood and a solution with pH 1.2 mimics the environment of the stomach.
That is, compared with the conventional silibinin, the silibinin nanoparticle of the invention has improved blood solubility.

[2] = test system: Sprague-Dawley (SD) male rats; assay: Safety test in SD rats, administration via gastrostomy for 15 days; details: rat, in vivo
Description: (§1) Sprague-Dawley (SD) male rats (6 week-old) purchased from BioLASCO Taiwan Co., Ltd. are used in trials (D) and (E). The SD rats are housed on a 12-hours light and 12-hours dark cycle in an animal room kept at a constant temperature of 25±1° C. and constant humidity of 55±5%. The SD rats are housed for several days before being administered the silibinin nanoparticle of the invention via gastrostomy in a dosage shown in TABLE 3.
With reference to FIG. 6B, after being administered the silibinin nanoparticle of the invention for 15 days, all of the SD rats of groups D0 to D2 show a similar trend of increasing body weights.

[3] = Serum silibinin concentration in SD rats by HPLC; format: in vivo, rat
Description: as §1
After administration for 5, 15, 30, 60, 120, 360, 720, and 1440 minutes, 0.5 mL of blood samples are collected. The blood samples stand at room temperature for coagulation, followed by centrifugation to obtain serum. High-performance liquid chromatography (HPLC) is performed to analyze serum silibinin concentration.

[4] = Tissue silibinin concentration in SD rats 24 hours after administration by HPLC; format: in vivo, rat
Description: as §1
Furthermore, after being administered silibinin or silibinin nanoparticle for 24 hours, the SD rats of groups E1 and E2 are dissected and organs of heart, liver, spleen, lung, and kidney are collected. The collected organs are homogenized by a saline buffer, followed by extraction of silibinin with acetonitrile. The extracted silibinin is analyzed by HPLC.

hepatitis C virus = assay: HCVcc infectivity in Huh-7 cells infected by hepatitis C virus (luminescence); format: cell-based
Description: Huh-7 cells are infected by hepatitis C virus for 3 hours. After infection, surplus hepatitis C virus are washed, followed by adding a medium with 10% fetal bovine serum (FBS) and the treatment shown in TABLE 5 for 72 hours. The resulting media is collected and the luminescence level is analyzed to evaluate HCVcc infectivity. Specifically, group F2 is treated with dimethyl sulfoxide (DMSO), group F3 is treated with interferon-α (IFN-α), a conventional medication for treating hepatitis C, group F4 is treated with PVP, group F5 is treated with the conventional silibinin dissolved in DMSO, group F6 is treated with the conventional silibinin dissolved in water, and group F7 is treated with the silibinin nanoparticle of the invention dissolved in water.

[5] = 100 mg/kg silibinin (nanoparticle 200 mg/kg with 100 mg of silibinin)

## COc1cc(C2Oc3cc(C4Oc5cc(O)cc(O)c5C(=O)C4O)ccc3OC2CO)ccc1O (centres unmarked) [silibinin, 3,5,7-trihydroxy-2-[3-(4-hydroxy-3-methoxyphenyl)-2-(hydroxymethyl)-2,3-dihydro-1,4-benzodioxin-6-yl]-2,3-dihydrochromen-4-one]
[1]
  dissolution in solution mimicking the environment of the blood: cannot dissolve
[2]
  safe dosage (as silibinin content): 5 mg/kg body weight per day
[3]; [5]
  highest level of serum silibinin concentration: 170 ng/mL
  time to highest level of serum silibinin concentration: 15 min
[3]; male, Sprague-Dawley, rat, serum, 100 mg/kg body weight/day, 1440 minutes after administration
  concentration at 1440 minutes: 0 ng/mL
[4]
  tissue distribution of silibinin (heart, liver, spleen, lung, kidney): silibinin only exists in the lung
Hepatitis C virus; 72 hours, dissolved in DMSO
  HCVcc infectivity: 4.9 log10 RLU

## IFN-α
Hepatitis C virus; 72 hours treatment
  HCVcc infectivity: 4.2 log10 RLU
